From article PMC7385619, “A triple action CDK4/6-PI3K-BET inhibitor with augmented cancer cell cytotoxicity” (Cell Discovery, 2020)
Like-named read-outs stand apart in the source and are kept apart here.

Experiments:
Assay in all cases: KINOMEscan assay (Eurofins DiscoverX)
Format in all cases: binding
[1] = target: T1, kinome (kinase panel) (Homo sapiens, UniProt Q9Y6M4); settings: CSNK1G3; 1000 nM; read-out: Percent Control
T1 construct: purchased Eurofins DiscoverX

[2] = target: T2, kinome (kinase panel) (Homo sapiens, UniProt P07949, V804L); settings: read-out: Percent Control
T2 construct: purchased Eurofins DiscoverX

[3] = target: T3, kinome (kinase panel) (Homo sapiens, UniProt O14578); settings: CIT; 1000 nM; read-out: Percent Control
T3 construct: purchased Eurofins DiscoverX

[4] = target: T4, kinome (kinase panel) (Homo sapiens, UniProt P04629); settings: TRKA (NTRK1); 1000 nM; read-out: Percent Control
T4 construct: purchased Eurofins DiscoverX

[5] = target: T5, kinome (kinase panel) (Homo sapiens, UniProt P37173); settings: TGFBR2; 1000 nM; read-out: Percent Control
T5 construct: purchased Eurofins DiscoverX

[6] = target: T6, kinome (kinase panel) (Homo sapiens, UniProt P28482); settings: ERK2 (Entrez MAPK1); 1000 nM; read-out: Percent Control
T6 construct: purchased Eurofins DiscoverX

[7] = target: T7, kinome (kinase panel) (Homo sapiens, UniProt P24941); settings: CDK2; 1000 nM; read-out: Percent Control
T7 construct: purchased Eurofins DiscoverX

[8] = target: T8, kinome (kinase panel) (Homo sapiens, UniProt O96017); settings: CHEK2; 1000 nM; read-out: Percent Control
T8 construct: purchased Eurofins DiscoverX

[9] = target: T9, kinome (kinase panel) (Homo sapiens, UniProt Q13873); settings: BMPR2; 1000 nM; read-out: Percent Control
T9 construct: purchased Eurofins DiscoverX

[10] = target: T10, kinome (kinase panel) (Homo sapiens, UniProt Q9HBH9); settings: MKNK2; 1000 nM; read-out: Percent Control
T10 construct: purchased Eurofins DiscoverX

[11] = target: T11, kinome (kinase panel) (Homo sapiens, UniProt O15146); settings: MUSK; 1000 nM; read-out: Percent Control
T11 construct: purchased Eurofins DiscoverX

[12] = target: T12, kinome (kinase panel) (Homo sapiens, UniProt P52564); settings: MEK6 (Entrez MAP2K6); 1000 nM; read-out: Percent Control
T12 construct: purchased Eurofins DiscoverX

[13] = target: T13, kinome (kinase panel) (Homo sapiens, UniProt Q8WU08); settings: YANK1 (STK32A); 1000 nM; read-out: Percent Control
T13 construct: purchased Eurofins DiscoverX

[14] = target: T14, kinome (kinase panel) (Homo sapiens, UniProt O95747); settings: OSR1 (Entrez OXSR1); 1000 nM; read-out: Percent Control
T14 construct: purchased Eurofins DiscoverX

[15] = target: T15, kinome (kinase panel) (Homo sapiens, UniProt P35916); settings: FLT4; 1000 nM; read-out: Percent Control
T15 construct: purchased Eurofins DiscoverX

[16] = target: T16, kinome (kinase panel) (Homo sapiens, UniProt P35626); settings: GRK3 (Entrez ADRBK2); 1000 nM; read-out: Percent Control
T16 construct: purchased Eurofins DiscoverX

[17] = target: T17, kinome (kinase panel) (Homo sapiens, UniProt P36888); settings: 1000 nM, read-out: Percent Control
T17 construct: purchased Eurofins DiscoverX

[18] = target: T18, kinome (kinase panel) (Homo sapiens, UniProt O00329); settings: PIK3CD; 1000 nM; read-out: Percent Control
T18 construct: purchased Eurofins DiscoverX

[19] = target: T19, kinome (kinase panel) (Homo sapiens, UniProt Q9UPZ9); settings: ICK; 1000 nM; read-out: Percent Control
T19 construct: purchased Eurofins DiscoverX

[20] = target: T20, kinome (kinase panel) (Homo sapiens, UniProt Q8TDC3); settings: BRSK1; 1000 nM; read-out: Percent Control
T20 construct: purchased Eurofins DiscoverX

[21] = target: T21, kinome (kinase panel) (Homo sapiens, UniProt P41240); settings: CSK; 1000 nM; read-out: Percent Control
T21 construct: purchased Eurofins DiscoverX

[22] = target: T22, kinome (kinase panel) (Homo sapiens, UniProt Q9UF33); settings: EPHA6; 1000 nM; read-out: Percent Control
T22 construct: purchased Eurofins DiscoverX

[23] = target: T23, kinome (kinase panel) (Homo sapiens, UniProt P29320); settings: EPHA3; 1000 nM; read-out: Percent Control
T23 construct: purchased Eurofins DiscoverX

[24] = target: T24, kinome (kinase panel) (Homo sapiens, UniProt P10721, T670I/V559D); settings: read-out: Percent Control
T24 construct: purchased Eurofins DiscoverX

[25] = target: T25, kinome (kinase panel) (Homo sapiens, UniProt Q15835); settings: GRK1; 1000 nM; read-out: Percent Control
T25 construct: purchased Eurofins DiscoverX

[26] = target: T26, kinome (kinase panel) (Homo sapiens, UniProt P19784); settings: CSNK2A2; 1000 nM; read-out: Percent Control
T26 construct: purchased Eurofins DiscoverX

[27] = target: T27, kinome (kinase panel) (Homo sapiens, UniProt Q9BVS4); settings: RIOK2; 1000 nM; read-out: Percent Control
T27 construct: purchased Eurofins DiscoverX

[28] = target: T28, kinome (kinase panel) (Homo sapiens, UniProt Q12851); settings: MAP4K2; 1000 nM; read-out: Percent Control
T28 construct: purchased Eurofins DiscoverX

[29] = target: T29, kinome (kinase panel) (Homo sapiens, UniProt Q99683); settings: ASK1 (Entrez MAP3K5); 1000 nM; read-out: Percent Control
T29 construct: purchased Eurofins DiscoverX

[30] = target: T30, kinome (kinase panel) (Homo sapiens, UniProt P54646); settings: AMPK-alpha2 (Entrez PRKAA2); 1000 nM; read-out: Percent Control
T30 construct: purchased Eurofins DiscoverX

[31] = target: T31, kinome (kinase panel) (Homo sapiens, UniProt Q9P289); settings: MST4; 1000 nM; read-out: Percent Control
T31 construct: purchased Eurofins DiscoverX

[32] = target: T32, kinome (kinase panel) (Homo sapiens, UniProt Q9BX84); settings: TRPM6; 1000 nM; read-out: Percent Control
T32 construct: purchased Eurofins DiscoverX

T17 sequence (P36888 27-993): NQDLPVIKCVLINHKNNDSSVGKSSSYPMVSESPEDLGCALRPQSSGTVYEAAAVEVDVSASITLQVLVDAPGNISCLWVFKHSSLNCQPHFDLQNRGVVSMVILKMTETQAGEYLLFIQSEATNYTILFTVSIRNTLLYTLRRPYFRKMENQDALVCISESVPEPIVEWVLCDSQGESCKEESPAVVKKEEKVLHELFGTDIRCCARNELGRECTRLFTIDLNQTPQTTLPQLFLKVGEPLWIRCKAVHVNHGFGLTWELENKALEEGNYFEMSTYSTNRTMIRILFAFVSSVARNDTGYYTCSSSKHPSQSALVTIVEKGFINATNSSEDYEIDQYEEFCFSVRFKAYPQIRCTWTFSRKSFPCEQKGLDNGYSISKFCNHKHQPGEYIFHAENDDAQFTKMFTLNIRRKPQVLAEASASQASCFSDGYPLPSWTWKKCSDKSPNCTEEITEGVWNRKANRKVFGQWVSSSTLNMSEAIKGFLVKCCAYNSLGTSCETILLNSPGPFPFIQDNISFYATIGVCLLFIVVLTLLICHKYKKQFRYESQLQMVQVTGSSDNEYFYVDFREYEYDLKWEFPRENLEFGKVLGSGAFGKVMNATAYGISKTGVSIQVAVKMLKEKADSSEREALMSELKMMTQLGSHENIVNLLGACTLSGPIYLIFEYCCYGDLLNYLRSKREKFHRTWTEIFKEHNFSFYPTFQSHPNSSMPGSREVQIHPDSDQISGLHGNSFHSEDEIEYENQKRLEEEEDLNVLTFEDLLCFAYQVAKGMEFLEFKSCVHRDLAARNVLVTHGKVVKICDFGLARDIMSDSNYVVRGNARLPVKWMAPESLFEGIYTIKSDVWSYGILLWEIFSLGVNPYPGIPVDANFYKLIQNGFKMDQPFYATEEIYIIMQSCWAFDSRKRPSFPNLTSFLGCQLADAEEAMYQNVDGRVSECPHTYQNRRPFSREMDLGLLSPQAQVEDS
T9 sequence (Q13873 27-1038): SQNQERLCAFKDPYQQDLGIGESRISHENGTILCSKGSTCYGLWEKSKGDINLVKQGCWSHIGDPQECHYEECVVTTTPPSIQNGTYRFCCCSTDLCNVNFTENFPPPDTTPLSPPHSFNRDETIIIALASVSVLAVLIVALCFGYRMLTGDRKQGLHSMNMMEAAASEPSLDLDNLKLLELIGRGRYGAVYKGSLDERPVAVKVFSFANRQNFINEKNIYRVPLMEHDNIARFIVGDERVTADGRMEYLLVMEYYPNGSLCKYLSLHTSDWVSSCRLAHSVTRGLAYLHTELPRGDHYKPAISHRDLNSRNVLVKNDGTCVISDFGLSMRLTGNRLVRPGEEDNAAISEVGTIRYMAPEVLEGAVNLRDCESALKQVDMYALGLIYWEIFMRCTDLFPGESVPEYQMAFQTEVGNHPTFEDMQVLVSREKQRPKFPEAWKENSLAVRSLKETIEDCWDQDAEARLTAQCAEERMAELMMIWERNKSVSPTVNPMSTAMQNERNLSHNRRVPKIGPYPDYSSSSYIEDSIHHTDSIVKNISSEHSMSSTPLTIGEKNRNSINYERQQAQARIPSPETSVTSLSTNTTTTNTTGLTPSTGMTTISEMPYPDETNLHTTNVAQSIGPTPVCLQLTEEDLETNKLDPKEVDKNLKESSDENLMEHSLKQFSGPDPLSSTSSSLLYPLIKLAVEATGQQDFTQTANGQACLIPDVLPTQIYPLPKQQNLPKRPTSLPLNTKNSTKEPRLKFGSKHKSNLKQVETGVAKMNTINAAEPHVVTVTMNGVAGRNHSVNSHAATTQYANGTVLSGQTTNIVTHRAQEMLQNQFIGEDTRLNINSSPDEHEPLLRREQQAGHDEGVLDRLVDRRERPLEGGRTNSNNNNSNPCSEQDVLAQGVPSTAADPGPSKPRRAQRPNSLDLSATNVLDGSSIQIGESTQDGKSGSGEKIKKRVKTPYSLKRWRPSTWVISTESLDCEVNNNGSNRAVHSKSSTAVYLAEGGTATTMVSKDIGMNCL
T2 sequence (P07949 29-1114 V804L): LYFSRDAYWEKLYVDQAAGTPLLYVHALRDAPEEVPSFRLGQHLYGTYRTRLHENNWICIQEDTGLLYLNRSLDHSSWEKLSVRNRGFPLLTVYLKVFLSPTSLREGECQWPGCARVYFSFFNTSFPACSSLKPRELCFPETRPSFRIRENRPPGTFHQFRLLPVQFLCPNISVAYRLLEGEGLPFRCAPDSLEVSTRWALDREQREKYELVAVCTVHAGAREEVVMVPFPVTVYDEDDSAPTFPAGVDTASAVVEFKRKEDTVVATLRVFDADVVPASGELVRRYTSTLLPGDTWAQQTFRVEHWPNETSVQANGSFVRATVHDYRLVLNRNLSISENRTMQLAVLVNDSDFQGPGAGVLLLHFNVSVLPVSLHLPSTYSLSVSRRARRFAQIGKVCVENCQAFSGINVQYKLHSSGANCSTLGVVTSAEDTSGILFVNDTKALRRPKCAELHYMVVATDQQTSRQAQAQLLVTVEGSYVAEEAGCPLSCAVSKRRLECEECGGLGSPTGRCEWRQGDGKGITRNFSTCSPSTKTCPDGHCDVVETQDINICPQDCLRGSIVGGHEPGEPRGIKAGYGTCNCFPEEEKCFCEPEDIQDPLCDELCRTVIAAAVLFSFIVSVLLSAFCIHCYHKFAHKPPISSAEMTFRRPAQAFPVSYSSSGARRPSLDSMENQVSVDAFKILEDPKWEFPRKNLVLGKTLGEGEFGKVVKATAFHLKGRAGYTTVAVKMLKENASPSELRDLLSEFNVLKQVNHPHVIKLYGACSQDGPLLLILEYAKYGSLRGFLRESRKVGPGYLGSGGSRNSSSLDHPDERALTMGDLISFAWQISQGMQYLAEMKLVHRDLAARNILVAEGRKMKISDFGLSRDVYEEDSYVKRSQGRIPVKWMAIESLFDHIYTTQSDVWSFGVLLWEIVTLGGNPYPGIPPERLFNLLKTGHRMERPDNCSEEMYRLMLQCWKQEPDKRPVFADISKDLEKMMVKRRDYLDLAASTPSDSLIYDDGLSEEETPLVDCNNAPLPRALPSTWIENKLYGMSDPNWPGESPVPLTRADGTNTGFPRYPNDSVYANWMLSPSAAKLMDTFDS
T24 sequence (P10721 26-976 V559D/T670I): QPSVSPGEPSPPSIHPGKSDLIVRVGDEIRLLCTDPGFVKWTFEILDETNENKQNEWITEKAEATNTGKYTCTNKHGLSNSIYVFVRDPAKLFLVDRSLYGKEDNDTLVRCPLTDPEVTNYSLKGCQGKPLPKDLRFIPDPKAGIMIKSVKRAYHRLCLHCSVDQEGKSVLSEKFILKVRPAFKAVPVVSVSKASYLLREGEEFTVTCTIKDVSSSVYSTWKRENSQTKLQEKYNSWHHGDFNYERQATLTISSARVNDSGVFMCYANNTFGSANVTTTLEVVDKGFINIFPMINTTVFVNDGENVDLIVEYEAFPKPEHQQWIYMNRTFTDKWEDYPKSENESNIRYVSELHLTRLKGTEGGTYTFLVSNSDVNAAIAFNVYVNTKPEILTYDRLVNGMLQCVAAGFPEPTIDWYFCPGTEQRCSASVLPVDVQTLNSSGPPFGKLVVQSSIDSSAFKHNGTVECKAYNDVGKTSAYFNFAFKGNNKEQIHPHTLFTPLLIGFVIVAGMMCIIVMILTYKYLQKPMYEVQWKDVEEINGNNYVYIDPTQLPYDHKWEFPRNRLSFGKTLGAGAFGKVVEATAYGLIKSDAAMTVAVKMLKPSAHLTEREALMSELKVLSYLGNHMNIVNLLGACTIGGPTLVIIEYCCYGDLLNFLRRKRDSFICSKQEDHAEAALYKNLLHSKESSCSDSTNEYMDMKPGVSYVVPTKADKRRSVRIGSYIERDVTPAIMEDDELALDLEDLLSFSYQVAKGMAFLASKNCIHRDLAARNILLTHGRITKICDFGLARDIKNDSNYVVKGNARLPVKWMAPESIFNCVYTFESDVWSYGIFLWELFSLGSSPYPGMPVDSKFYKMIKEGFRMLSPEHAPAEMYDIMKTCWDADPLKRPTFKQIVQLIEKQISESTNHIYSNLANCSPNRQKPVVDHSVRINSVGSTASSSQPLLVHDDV
T4 sequence (P04629 33-796): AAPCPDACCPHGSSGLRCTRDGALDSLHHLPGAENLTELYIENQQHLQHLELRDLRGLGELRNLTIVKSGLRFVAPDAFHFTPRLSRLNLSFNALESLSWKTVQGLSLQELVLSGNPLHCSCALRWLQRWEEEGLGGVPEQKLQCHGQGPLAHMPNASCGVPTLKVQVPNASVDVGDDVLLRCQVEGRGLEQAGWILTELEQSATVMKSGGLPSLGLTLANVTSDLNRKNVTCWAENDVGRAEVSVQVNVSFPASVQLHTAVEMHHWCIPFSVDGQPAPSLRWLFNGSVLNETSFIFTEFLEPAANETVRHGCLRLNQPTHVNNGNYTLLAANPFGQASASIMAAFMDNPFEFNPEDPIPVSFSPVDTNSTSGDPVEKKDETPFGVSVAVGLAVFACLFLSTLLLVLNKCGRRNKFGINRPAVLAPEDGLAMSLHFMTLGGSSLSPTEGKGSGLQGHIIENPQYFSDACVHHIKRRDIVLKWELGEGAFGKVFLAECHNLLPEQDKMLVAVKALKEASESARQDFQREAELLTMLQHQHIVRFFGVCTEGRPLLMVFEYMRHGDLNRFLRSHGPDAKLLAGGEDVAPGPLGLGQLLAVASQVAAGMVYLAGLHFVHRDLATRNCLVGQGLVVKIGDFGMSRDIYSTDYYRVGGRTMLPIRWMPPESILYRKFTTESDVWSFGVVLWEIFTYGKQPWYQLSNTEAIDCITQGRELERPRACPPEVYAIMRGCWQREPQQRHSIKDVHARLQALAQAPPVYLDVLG

CN(C)C(=O)c1cc2cnc(Nc3ccc(-c4csc5c(=O)cc(N6CCOCC6)oc45)cc3)nc2n1C1CCCC1 [SRX3177]
remaining binding at 1 µM [1]: 100% | remaining binding at 1 µM [2]: 99% | remaining binding at 1 µM [3]: 84% | remaining binding at 1 µM [4]: 1.1% | remaining binding at 1 µM [5]: 100% | remaining binding at 1 µM [6]: 100% | remaining binding at 1 µM [7]: 72% | remaining binding at 1 µM [8]: 94% | remaining binding at 1 µM [9]: 78% | remaining binding at 1 µM [10]: 45% | remaining binding at 1 µM [11]: 95% | remaining binding at 1 µM [12]: 100% | remaining binding at 1 µM [13]: 94% | remaining binding at 1 µM [14]: 88% | remaining binding at 1 µM [15]: 88% | remaining binding at 1 µM [16]: 46% | remaining binding at 1 µM ([17]; FLT3-autoinhibited): 63% | remaining binding at 1 µM ([17]; FLT3): 26% | remaining binding at 1 µM [18]: 63% | remaining binding at 1 µM [19]: 9.8% | remaining binding at 1 µM [20]: 100% | remaining binding at 1 µM [21]: 100% | remaining binding at 1 µM [22]: 99% | remaining binding at 1 µM [23]: 90% | remaining binding at 1 µM [24]: 100% | remaining binding at 1 µM [25]: 79% | remaining binding at 1 µM [26]: 5.7% | remaining binding at 1 µM [27]: 6.6% | remaining binding at 1 µM [28]: 82% | remaining binding at 1 µM [29]: 100% | remaining binding at 1 µM [30]: 98% | remaining binding at 1 µM [31]: 41% | remaining binding at 1 µM [32]: 99%
